{"source": "patent US20240139166A1", "about": "“OPHTHALMIC COMPOSITIONS FOR PRESBYOPIA” (Sydnexis, Inc., priority 2021, published 2024)", "assay": "Stability of pilocarpine in deuterated water (pilocarpic acid formation)", "assay_type": "physicochemical", "experimental": "The stability of pilocarpine was tested over a range of concentrations. Pilocarpic acid formation, a major degradant of pilocarpine, was measured. […] The stability of pilocarpine, as measured by the percent of pilocarpic acid formation, was measured at different pH/pD values, as depicted in FIG. 2."}
{"smiles": "CC[C@@H]1C(=O)OC[C@@H]1Cc1cncn1C", "note": "[pilocarpine]", "values": [{"measurement": "Stability (pilocarpic acid formation) in deuterated water versus non-deuterated water", "setting": "FIG. 1", "value": "improved stability in deuterated water as compared to non-deuterated water"}, {"measurement": "Stability (pilocarpic acid formation) over a range of pilocarpine concentrations", "setting": "FIG. 1", "value": "improved stability at higher concentrations of pilocarpine"}, {"measurement": "Stabilizing factor of deuterated water versus pilocarpine concentration", "setting": "FIG. 1", "value": "stabilizing factor increases as pilocarpine concentration decreases"}, {"measurement": "Rate of pilocarpic acid formation at different pH/pD values", "setting": "FIG. 2", "value": "linear log/log relationship was identified between the log(rate of pilocarpic acid formation) and pH"}]}
